SMILES strings stand for the structures.

The target of the experiment is BRAF^V600E protein (Homo sapiens, UniProt P15056, V600E). Kind of experiment: HiBiT cellular BRAF V600E degradation assay. It counts as cell-based. The settings on record: 24 h incubation; for DC50: A375.10 cells (HiBiT tag knocked in at N-terminal of BRAF V600E), concentration at which 50% of total cellular BRAF V600E is degraded; for Emax: read-out: HiBit 24 h Emax. (In general: HiBiT is a short tag that completes a luciferase, so light tracks the accessible tagged protein.)

Setting [1] is: A375.10 cells, Emax = amount of residual protein remaining in the cell after compound treatment.

Chain of BRAF^V600E protein (P15056 whole entry V600E): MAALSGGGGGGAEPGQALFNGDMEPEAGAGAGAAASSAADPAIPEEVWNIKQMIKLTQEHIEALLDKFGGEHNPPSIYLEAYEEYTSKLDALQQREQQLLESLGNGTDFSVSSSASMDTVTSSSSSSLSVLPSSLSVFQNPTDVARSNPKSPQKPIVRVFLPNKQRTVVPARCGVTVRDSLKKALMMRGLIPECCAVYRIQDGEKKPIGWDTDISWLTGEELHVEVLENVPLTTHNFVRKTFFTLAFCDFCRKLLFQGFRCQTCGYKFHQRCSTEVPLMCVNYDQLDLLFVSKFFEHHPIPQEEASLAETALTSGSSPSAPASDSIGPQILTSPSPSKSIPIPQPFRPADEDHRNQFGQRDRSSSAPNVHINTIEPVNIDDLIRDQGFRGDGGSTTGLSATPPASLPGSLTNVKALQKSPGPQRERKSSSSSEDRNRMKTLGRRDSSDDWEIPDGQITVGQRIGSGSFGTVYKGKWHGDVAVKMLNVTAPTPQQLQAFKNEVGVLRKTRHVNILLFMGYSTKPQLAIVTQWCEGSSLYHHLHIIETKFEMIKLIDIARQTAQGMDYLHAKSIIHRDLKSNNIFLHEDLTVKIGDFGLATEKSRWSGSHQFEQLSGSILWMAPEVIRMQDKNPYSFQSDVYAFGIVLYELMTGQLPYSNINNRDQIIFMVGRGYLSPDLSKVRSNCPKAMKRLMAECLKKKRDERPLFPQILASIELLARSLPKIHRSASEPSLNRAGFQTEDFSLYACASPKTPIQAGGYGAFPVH

Consider `CCN(C)S(=O)(=O)Nc1ccc(F)c(C(=O)c2c[nH]c3ncc(-c4ccc(N5CCN(C(=O)CN6CCC(c7ccc(O[C@H]8CCC(=O)NC8=O)cc7)CC6)CC5)nc4)cc23)c1F` [Example A121, 5-[6-[4-[2-[4-[4-[(3S)-2,6-Dioxopiperidin-3-yl]oxyphenyl]piperidin-1-yl]acetyl]piperazin-1-yl]pyridin-3-yl]-3-[3-[[ethyl(methyl)sulfamoyl]amino]-2,6-difluorobenzoyl]-1H-pyrrolo[2,3-b]pyridine], for which the DC50 (as a rule, the concentration at which degradation of the target reaches its halfway point) was 12 nM. Moreover, the Emax – broadly, the maximal effect, on the per cent scale that the assay sets – under setting [1] worked out at 8%.
For `CCN(C)S(=O)(=O)Nc1ccc(F)c(C(=O)c2c[nH]c3ncc(-c4cnc(N5CCN(C(=O)CN6CCC(c7ccc(NC8CCC(=O)NC8=O)cc7)CC6)CC5)nc4)cc23)c1C` (stereo not shown) [Example 123, 5-[2-[4-[2-[4-[4-[(2,6-dioxo-3-piperidyl)amino]phenyl]-1-piperidyl]acetyl]piperazin-1-yl]pyrimidin-5-yl]-3-[3-[[ethyl(methyl)sulfamoyl]amino]-6-fluoro-2-methyl-benzoyl]-1H-pyrrolo[2,3-b]pyridine] the same measures were 46.4 nM and 11.7%.
For `CCN(C)S(=O)(=O)Nc1ccc(F)c(C(=O)c2c[nH]c3ncc(-c4cnc(N5CCN(C(=O)CC6(O)CCN(c7ccc(NC8CCC(=O)NC8=O)cc7F)CC6)CC5)nc4)cc23)c1F` (stereo not shown) [Example 59, 5-[2-[4-[2-[1-[4-[(2,6-dioxo-3-piperidyl)amino]-2-fluoro-phenyl]-4-hydroxy-4-piperidyl]acetyl]piperazin-1-yl]pyrimidin-5-yl]-3-[3-[[ethyl(methyl)sulfamoyl]amino]-2,6-difluoro-benzoyl]-1H-pyrrolo[2,3-b]pyridine] the same measures were 2.41 nM and 8.84%.
For `CCN(C)S(=O)(=O)Nc1cccc(C(=O)c2c[nH]c3ncc(-c4ccc(N5CCN(C(=O)CC6(O)CCN(c7ccc(NC8CCC(=O)NC8=O)cc7)CC6)CC5)nc4)cc23)c1F` (stereo not shown) [Example 109, 5-[6-[4-[2-[1-[4-[(2,6-dioxo-3-piperidyl)amino]phenyl]-4-hydroxy-4-piperidyl]acetyl]piperazin-1-yl]-3-pyridyl]-3-[3-[[ethyl(methyl)sulfamoyl]amino]-2-fluoro-benzoyl]-1H-pyrrolo[2,3-b]pyridine] the same measures were 5.49 nM and 10.8%.
`CCN(C)S(=O)(=O)Nc1ccc(F)c(C(=O)c2c[nH]c3ncc(-c4cnc(N5CCN(C(=O)CN6CCC(c7ccc(N(C)C8CCC(=O)NC8=O)cc7)CC6)CC5)nc4)cc23)c1F` (stereo not shown) [Example A70, 5-[2-[4-[2-[4-[4-[(2,6-Dioxopiperidin-3-yl)-methylamino]phenyl]piperidin-1-yl]acetyl]piperazin-1-yl]pyrimidin-5-yl]-3-[3-[[ethyl(methyl)sulfamoyl]amino]-2,6-difluorobenzoyl]-1H-pyrrolo[2,3-b]pyridine] gave a half-maximal degradation concentration (DC50) of 19 nM. For the same molecule, the maximal effect (Emax) under setting [1] stood at 18%.
For `CCN(C)S(=O)(=O)Nc1ccc(F)c(C(=O)c2c[nH]c3ncc(-c4cnc(N5CC6(CC(C(=O)N7CCC(c8ccc(NC9CCC(=O)NC9=O)cc8)CC7)C6)C5)nc4)cc23)c1F` (stereo not shown) [Example 132, 5-[2-[6-[4-[4-[(2,6-dioxo-3-piperidyl)amino]phenyl]piperidine-1-carbonyl]-2-azaspiro[3.3]heptan-2-yl]pyrimidin-5-yl]-3-[3-[[ethyl(methyl)sulfamoyl]amino]-2,6-difluoro-benzoyl]-1H-pyrrolo[2,3-b]pyridine] the same measures were 18.2 nM and 12%.
In the same order, the values of `CCN(C)S(=O)(=O)Nc1ccc(F)c(C(=O)c2c[nH]c3ncc(-c4cnc(N5CCN(C(=O)CN6CCC(c7ccc(NC8CCC(=O)NC8=O)cc7F)CC6)CC5)nc4)cc23)c1F` (stereo not shown) [Example A54, 5-[2-[4-[2-[4-[4-[(2,6-Dioxopiperidin-3-yl)amino]-2-fluorophenyl]piperidin-1-yl]acetyl]piperazin-1-yl]pyrimidin-5-yl]-3-[3-[[ethyl(methyl)sulfamoyl]amino]-2,6-difluorobenzoyl]-1H-pyrrolo[2,3-b]pyridine] are 3.94 nM and 9.71%.
Molecule `CCN(C)S(=O)(=O)Nc1ccc(F)c(C(=O)c2c[nH]c3ncc(-c4cnc(N5CCN(C(=O)CC6(O)CCN(c7ccc(N[C@@H]8CCC(=O)NC8=O)cc7Cl)CC6)CC5)nc4)cc23)c1F` [Example 209, 5-[2-[4-[2-[1-[2-chloro-4-[[(3R)-2,6-dioxo-3-piperidyl]amino]phenyl]-4-hydroxy-4-piperidyl]acetyl]piperazin-1-yl]pyrimidin-5-yl]-3-[3-[[ethyl(methyl)sulfamoyl]amino]-2,6-difluoro-benzoyl]-1H-pyrrolo[2,3-b]pyridine] came in with a DC50 of 0.76 nM. In addition, the Emax under setting [1] is 5.52%.
For `CCN(C)S(=O)(=O)Nc1ccc(F)c(C(=O)c2c[nH]c3ncc(-c4ccc(N5CCN(C(=O)CC6(O)CCN(c7ccc(NC8CCC(=O)NC8=O)cc7F)CC6)CC5)c(F)c4)cc23)c1F` (stereo not shown) [Example 198, 5-[4-[4-[2-[1-[4-[(2,6-dioxo-3-piperidyl)amino]-2-fluoro-phenyl]-4-hydroxy-4-piperidyl]acetyl]piperazin-1-yl]-3-fluoro-phenyl]-3-[3-[[ethyl(methyl)sulfamoyl]amino]-2,6-difluoro-benzoyl]-1H-pyrrolo[2,3-b]pyridine] the same measures were 2.42 nM and 6.19%.
On to `CCN(C)S(=O)(=O)Nc1ccc(F)c(C(=O)c2c[nH]c3ncc(-c4ccc(N5CCN(C(=O)CN(C)C(=O)Cc6ccc(NC7CCC(=O)NC7=O)cc6)CC5)nc4)cc23)c1F` (stereo not shown) [Example A39, 2-[4-[(2,6-dioxopiperidin-3-yl)amino]phenyl]-N-[2-[4-[5-[3-[3-[[ethyl(methyl)sulfamoyl]amino]-2,6-difluorobenzoyl]-1H-pyrrolo[2,3-b]pyridin-5-yl]pyridin-2-yl]piperazin-1-yl]-2-oxoethyl]-N-methylacetamide], for which the DC50 stood at 35 nM. Besides, the Emax under setting [1] stood at 18%.
For `CCN(C)S(=O)(=O)Nc1cccc(C(=O)c2c[nH]c3ncc(-c4ccc(N5CCN(C(=O)NC6CCN(c7ccc(NC8CCC(=O)NC8=O)cc7F)CC6)CC5)nc4)cc23)c1F` (stereo not shown) [Example 154, N-[1-[4-[(2,6-dioxo-3-piperidyl)amino]-2-fluoro-phenyl]-4-piperidyl]-4-[5-[3-[3-[[ethyl(methyl)sulfamoyl]amino]-2-fluoro-benzoyl]-1H-pyrrolo[2,3-b]pyridin-5-yl]-2-pyridyl]piperazine-1-carboxamide] the same measures were 2.94 nM and 8.25%.
In turn, `CCN(C)S(=O)(=O)Nc1ccc(F)c(C(=O)c2c[nH]c3ncc(-c4ccc(N5CCC(NC(=O)CN6CCC(c7ccc(NC8CCC(=O)NC8=O)cc7)CC6)CC5)cc4)cc23)c1F.O=CO` (stereo not shown) [Example A67, 2-[4-[4-[(2,6-Dioxopiperidin-3-yl)amino]phenyl]piperidin-1-yl]-N-[1-[4-[3-[3-[[ethyl(methyl)sulfamoyl]amino]-2,6-difluorobenzoyl]-1H-pyrrolo[2,3-b]pyridin-5-yl]phenyl]piperidin-4-yl]acetamide; formic acid] had a DC50 (formic acid) of 7 nM. In addition, the “HiBit 24 h Emax” value (A375.10 cells, Emax = amount of residual protein remaining in the cell after compound treatment, formic acid) was found to be 11%.
In turn, `CCN(C)S(=O)(=O)Nc1ccc(F)c(C(=O)c2c[nH]c3ncc(-c4cnc(N5CCCN(C(=O)CN6CCC(c7ccc(NC8CCC(=O)NC8=O)cc7)CC6)CC5)nc4)cc23)c1F` (stereo not shown) [Example 63, 5-[2-[4-[2-[4-[4-[(2,6-dioxo-3-piperidyl)amino]phenyl]-1-piperidyl]acetyl]-1,4-diazepan-1-yl]pyrimidin-5-yl]-3-[3-[[ethyl(methyl)sulfamoyl]amino]-2,6-difluoro-benzoyl]-1H-pyrrolo[2,3-b]pyridine] registered a half-maximal degradation concentration (DC50) of 40.2 nM. Also, the Emax under setting [1] turned out to be 11.8%.
For `CCN(C)S(=O)(=O)Nc1ccc(F)c(C(=O)c2c[nH]c3ncc(-c4cnc(N5CCN(C(=O)CN6CCC(c7ccc(NC8CCC(=O)NC8=O)cc7)CC6)CC5)nc4)c(F)c23)c1F` (stereo not shown) [Example 66, 5-[2-[4-[2-[4-[4-[(2,6-dioxo-3-piperidyl)amino]phenyl]-1-piperidyl]acetyl]piperazin-1-yl]pyrimidin-5-yl]-3-[3-[[ethyl(methyl)sulfamoyl]amino]-2,6-difluoro-benzoyl]-4-fluoro-1H-pyrrolo[2,3-b]pyridine] the same measures were 3.06 nM and 8.1%.
For `CC(C)S(=O)(=O)Nc1ccc(F)c(C(=O)c2c[nH]c3ncc(-c4ccc(N5CCN(C(=O)CN6CCC(c7ccc(C8CCC(=O)NC8=O)cc7)CC6)CC5)nc4)cc23)c1F` (stereo not shown) [Example 14, N-[3-[5-[6-[4-[2-[4-[4-(2,6-dioxo-3-piperidyl)phenyl]-1-piperidyl]acetyl]piperazin-1-yl]-3-pyridyl]-1H-pyrrolo[2,3-b]pyridine-3-carbonyl]-2,4-difluoro-phenyl]propane-2-sulfonamide] the same measures were 8.56 nM and 3.41%.
In the same order, the values of `O=C1CCC(Nc2ccc(C3CCN(C(=O)NC4CCN(Cc5ccc(-c6cnc7[nH]cc(C(=O)c8c(F)ccc(NS(=O)(=O)N9CCCC9)c8F)c7c6)cc5)CC4)CC3)cc2)C(=O)N1` (stereo not shown) [Example A53, N-[1-[[4-[3-[2,6-Difluoro-3-(pyrrolidin-1-ylsulfonylamino)benzoyl]-1H-pyrrolo[2,3-b]pyridin-5-yl]phenyl]methyl]piperidin-4-yl]-4-[4-[(2,6-dioxopiperidin-3-yl)amino]phenyl]piperidine-1-carboxamide;formic acid] are 27 nM and 22%.
As to `CCN(C)S(=O)(=O)Nc1ccc(F)c(C(=O)c2c[nH]c3ncc(-c4cnc(N5CCN(C(=O)CC6(O)CCN(c7ccc(N[C@H]8CCC(=O)NC8=O)cc7Cl)CC6)CC5)nc4)cc23)c1F` [Example 206, 5-[2-[4-[2-[1-[2-chloro-4-[[(3S)-2,6-dioxo-3-piperidyl]amino]phenyl]-4-hydroxy-4-piperidyl]acetyl]piperazin-1-yl]pyrimidin-5-yl]-3-[3-[[ethyl(methyl)sulfamoyl]amino]-2,6-difluoro-benzoyl]-1H-pyrrolo[2,3-b]pyridine], the DC50 worked out at 2.28 nM. Moreover, the maximal response (Emax) under setting [1] was 6.9%.

(Values after patent publication US12559492B2, “BRAF degraders” (C4 Therapeutics, Inc., priority 2020, dated 2026).)
